Literature values, collected in PubChem BioAssay AID1259410 (Chemical Carcinogenesis Research Information System (CCRIS), 2018).

Tested on: rodent tumor promotion studies, tumor incidence
Experiment: CCRIS tumor promotion studies

CCCCCCOc1cc(C)c(O)c(C)c1C
outcome (Carcinogen: DIETHYLNITROSAMINE, 55-18-5, N-METHYL-N-NITROSOUREA, 684-93-5, N-BUTYL-N-(4-HYDROXYBUTYL)NITROSAMINE, 3817-11-6, DIMETHY, Carcinogen: DIETHYLNITROSAMINE, 55-18-5, N-METHYL-N-NITROSOUREA, 684-93-5, N-BUTYL-N-(4-HYDROXYBUTYL)NITROSAMINE, 3817-11-6, DIMETHY, Doses [Carcinogen]: 100 MG/KG BW DEN ONCE FOLLOWED BY 20 MG/KG BW MNU 4 TIMES AND 0.05% BBN IN DRINKING WATER DURING FIRST 2 WK THEN 40 MG/K, Doses [Promoter]: 0, 1% IN THE DIET FOR 24 WK BEGINNING 1 DAY POST CARCINOGEN TREATMENT (STUDY DURATION: 28 WK), Route [Carcinogen]: INTRAPERITONEAL, INTRAPERITONEAL, ORAL, SUBCUTANEOUS, ORAL, Route [Carcinogen]: INTRAPERITONEAL, INTRAPERITONEAL, ORAL, SUBCUTANEOUS, ORAL, Route [Promoter]: ORAL, Species: RAT, Strain/Sex: F344/MALE): tongue: papilloma; forestomach: papilloma | outcome (Carcinogen: ETHYLNITROSOURETHANE, 614-95-9, Doses [Carcinogen]: 0.01% IN DRINKING WATER FOR 4 WK, Doses [Promoter]: 0, 0.25% IN DIET FOR 36 WK BEGINNING POST CARCINOGEN TREATMENT (STUDY DURATION: 40 WK), Route [Carcinogen]: ORAL, Route [Promoter]: ORAL, Species: RAT, Strain/Sex: F344/MALE): forestomach: papilloma, carcinoma

CCOC(=O)C#Cc1ccccc1
outcome (Carcinogen: 7,12-DIMETHYLBENZ[A]ANTHRACENE, 57-97-6, Doses [Carcinogen]: 10 NMOL (2.5 UG IN 200 µL ACETONE), Doses [Promoter]: 5 MG 2/WK FOR 40 WK BEGINNING 2 WK POST CARCINOGEN TREATMENT (STUDY DURATION: 42 WK), Route [Carcinogen]: DERMAL, Route [Promoter]: DERMAL, Species: MOUSE, Strain/Sex: SENCAR/FEMALE): skin: tumor | outcome (Carcinogen: 7,12-DIMETHYLBENZ[A]ANTHRACENE, 57-97-6, Doses [Carcinogen]: 100 NMOL, Doses [Promoter]: 3, 5 MG 2/WK FOR 40 WK BEGINNING 2 WK POST CARCINOGEN TREATMENT (STUDY DURATION: 42 WK), Route [Carcinogen]: DERMAL, Route [Promoter]: DERMAL, Species: MOUSE, Strain/Sex: SENCAR/FEMALE): skin: tumor

C=O
outcome (Carcinogen: Benzo[a]pyrene, 50-32-8, Doses [Carcinogen]: 150 mg applied once, Doses [Promoter]: 0 (acetone), 0.1, 0.5, 1.0 mg/mouse, 3x.wk for 26 wk, study duration 26 wk, Doses [Promoter]: 0 (acetone), 0.1, 0.5, 1.0 mg/mouse, 3x.wk for 26 wk, study duration 26 wk, Route [Carcinogen]: Not reported, Route [Promoter]: Dermal, Species: Mouse, Strain/Sex: CD-1/Female (30/Group)): skin: results were negative | outcome (Carcinogen: N,N-Diethylnitrosamine, 55-18-5, Doses [Carcinogen]: 0.5 mg injections once a wk for 10 wk, Doses [Promoter]: 30 ppm weekly doses in various combinations from wk 12 for life of the animal, Route [Carcinogen]: Subcutaneous, Route [Promoter]: Inhalation, Species: Hamster, Strain/Sex: Syrian golden/Male (50/Group_): nasal epithelium: results were negative

CCCCCCCCC1=C(CCCCCCCC(=O)OC)C1
outcome (Doses [Carcinogen]: DIET, Doses [Promoter]: DIET, Route [Carcinogen]: ORAL, Route [Promoter]: ORAL, Species: FISH, Strain/Sex: RAINBOW TROUT/MALE,FEMALE): liver
